Measured values: ChEMBL document CHEMBL1201862, “PubChem BioAssay data set” (2004)
Blank lines part the entries; values can stand above or below the compound they belong to. Activity calls are given as the source filed them.

Experiments:
[1] = cytotoxicity in OVCAR8 ovarian cancer cells, dose response, PAX8 project, cell-based, plate reader, dry powder samples (AID 743197); type: functional; settings: OVCAR-8
[2] = non-specific cell cytotoxicity, dose response, cytotoxicity control for PAX8 inhibitor project, plate reader, dry powder samples (AID 743021); type: functional, cell-based
Paired box protein Pax-8 = Paired box protein Pax-8 (Homo sapiens, UniProt Q06710); assay: inhibitors of PAX8-driven TPO luciferase reporter, dose response, RMG-I cells, cherry-pick (AID 687027); type: functional, cell-based;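 note: luciferase reporter driven by Pax8 target thyroperoxidase promoter measured by SteadyGlo luminescence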
Chain of Paired box protein Pax-8 (Q06710 whole entry): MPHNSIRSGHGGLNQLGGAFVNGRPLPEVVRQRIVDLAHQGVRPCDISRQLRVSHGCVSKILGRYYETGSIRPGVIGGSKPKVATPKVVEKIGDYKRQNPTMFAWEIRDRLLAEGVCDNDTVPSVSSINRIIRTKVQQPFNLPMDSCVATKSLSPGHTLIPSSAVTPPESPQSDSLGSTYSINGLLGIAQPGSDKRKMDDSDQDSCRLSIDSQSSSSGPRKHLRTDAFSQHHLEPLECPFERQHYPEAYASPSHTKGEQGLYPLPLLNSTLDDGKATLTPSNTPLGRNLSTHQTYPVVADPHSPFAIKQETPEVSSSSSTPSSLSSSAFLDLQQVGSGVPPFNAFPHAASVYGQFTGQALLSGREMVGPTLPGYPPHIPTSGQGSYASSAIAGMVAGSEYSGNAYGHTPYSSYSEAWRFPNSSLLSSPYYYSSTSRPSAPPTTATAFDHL

[3] = NIH:OVCAR-3 ovarian cancer cell cytotoxicity, dose response, PAX8 inhibitor project, plate reader, dry powder samples (AID 743044); type: functional, cell-based
[4] = target: T1, Oxysterols receptor LXR-beta (Homo sapiens, UniProt P55055); type: functional, cell-based;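 note: agonist activity at LXR measured by a cell-based luminescence readout across a dose range, run as a counterscreen for daf-12 agonists; HEK293 cells with Gal4-LXR fusion and GAL4-driven luciferase reporter; potency for activation of Gal4-LXR reporter so compounds are agonists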
T1 sequence (P55055 whole entry): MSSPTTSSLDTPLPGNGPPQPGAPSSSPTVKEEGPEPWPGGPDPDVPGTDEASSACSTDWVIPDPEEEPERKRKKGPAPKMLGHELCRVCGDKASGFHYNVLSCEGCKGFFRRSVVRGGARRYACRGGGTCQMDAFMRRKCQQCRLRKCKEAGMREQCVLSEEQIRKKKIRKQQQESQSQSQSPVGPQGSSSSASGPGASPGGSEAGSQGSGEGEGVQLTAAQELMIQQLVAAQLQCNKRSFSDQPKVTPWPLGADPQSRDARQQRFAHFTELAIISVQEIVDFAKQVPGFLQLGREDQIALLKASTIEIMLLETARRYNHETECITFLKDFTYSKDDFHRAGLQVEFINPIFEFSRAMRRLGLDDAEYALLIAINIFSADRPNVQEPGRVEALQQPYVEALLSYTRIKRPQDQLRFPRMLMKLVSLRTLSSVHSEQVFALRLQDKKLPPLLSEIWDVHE

[5] = Shn3 3'UTR reporter inhibitors, dose response, cell-based, Clone20 osteoblasts, firefly luciferase, cherry-picked (AID 624132); type: functional;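 note: firefly luciferase luminescence from reporter carrying the Shn3 3'UTR in osteoblasts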
[6] = target: Disintegrin and metalloproteinase domain-containing protein 17 (Homo sapiens, UniProt P78536); assay: exosite inhibitors of ADAM17, dose response, biochemical (AID 743260)
Chain of Disintegrin and metalloproteinase domain-containing protein 17 (P78536 whole entry, the tested form may be a part): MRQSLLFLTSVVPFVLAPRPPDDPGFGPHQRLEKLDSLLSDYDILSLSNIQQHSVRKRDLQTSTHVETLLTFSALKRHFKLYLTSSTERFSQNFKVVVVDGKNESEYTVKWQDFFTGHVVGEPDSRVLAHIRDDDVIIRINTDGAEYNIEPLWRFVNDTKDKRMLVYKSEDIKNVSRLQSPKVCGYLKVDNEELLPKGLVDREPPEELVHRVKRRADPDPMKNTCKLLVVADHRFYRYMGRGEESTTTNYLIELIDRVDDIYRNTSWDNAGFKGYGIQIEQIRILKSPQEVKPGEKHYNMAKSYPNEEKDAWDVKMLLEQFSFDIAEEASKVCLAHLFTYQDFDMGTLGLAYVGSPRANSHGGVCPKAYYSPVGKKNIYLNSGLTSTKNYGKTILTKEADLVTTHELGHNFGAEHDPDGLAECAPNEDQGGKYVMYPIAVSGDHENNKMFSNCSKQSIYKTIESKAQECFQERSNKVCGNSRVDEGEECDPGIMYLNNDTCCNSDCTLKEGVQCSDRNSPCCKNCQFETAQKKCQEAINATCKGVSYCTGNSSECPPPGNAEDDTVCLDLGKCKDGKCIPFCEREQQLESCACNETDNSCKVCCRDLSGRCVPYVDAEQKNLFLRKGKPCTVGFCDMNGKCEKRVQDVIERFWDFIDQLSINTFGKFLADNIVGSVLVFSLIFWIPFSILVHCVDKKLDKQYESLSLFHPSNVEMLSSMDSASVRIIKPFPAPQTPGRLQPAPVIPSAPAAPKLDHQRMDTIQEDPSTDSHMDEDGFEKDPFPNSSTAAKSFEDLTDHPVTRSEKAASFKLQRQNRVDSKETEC

[7] = HepG2 cell cytotoxicity, dose response, cytotoxicity control for Shn3 inhibitor project, CellTiter-Glo, cherry-picked (AID 624134); type: functional, cell-based
H9c2 = assay: cells; type: functional, cell-based; settings: Rattus norvegicus, H9c2, Myocardium;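 note: confirmatory concentration-response retest of ultra-high-throughput screening hits for modulation of myocardial damage; cell death induced by hydrogen peroxide oxidative stress; compound pretreatment for 60 min then peroxide exposure for 2 h; potency is for protecting the cells against peroxide damage rather than for killing them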
[8] = ADAM10 protease inhibitors, dose response, selectivity assay for ADAM17 exosite inhibitor project, biochemical, FRET peptide substrate, recombinant human ADAM10 (AID 743259);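 note: ADAM10 enzyme cleaving a FRET peptide substrate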
[9] = Luminescence Cell-Based Dose Retest to Confirm Inhibitors of Cancer Stem Cells. [Related pubchem assays (depositor defined):AID2717, AID2721]; type: functional; settings: Homo sapiens
[10] = target: Heat shock protein HSP 90-alpha (Homo sapiens, UniProt P07900); type: functional, organism-based
[11] = target: T2, Tyrosyl-DNA phosphodiesterase 2 (Homo sapiens, UniProt O95551); assay: human TDP2 enzyme inhibitors, dose response, biochemical, epi absorbance, IC50 (AID 743297)
T2 sequence (O95551 whole entry): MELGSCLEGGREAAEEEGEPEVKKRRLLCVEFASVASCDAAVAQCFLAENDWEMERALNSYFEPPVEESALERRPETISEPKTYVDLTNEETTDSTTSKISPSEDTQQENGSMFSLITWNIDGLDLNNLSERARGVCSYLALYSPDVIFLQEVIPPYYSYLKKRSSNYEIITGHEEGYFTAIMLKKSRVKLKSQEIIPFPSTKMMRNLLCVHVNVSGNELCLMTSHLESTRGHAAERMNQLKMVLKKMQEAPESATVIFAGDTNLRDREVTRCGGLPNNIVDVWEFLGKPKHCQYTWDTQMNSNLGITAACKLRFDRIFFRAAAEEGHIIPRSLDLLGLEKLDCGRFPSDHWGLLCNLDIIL

Aminopeptidase N = target: T3, Aminopeptidase N (Plasmodium falciparum FcB1/Columbia, UniProt O96935); assay: P. falciparum M1AAP inhibitors, biochemical, fluorogenic H-Leu-NHMec substrate, 1536-well (AID 1445); design: species or system Plasmodium falciparum 3D7, 3D7
T3 sequence (O96935 whole entry): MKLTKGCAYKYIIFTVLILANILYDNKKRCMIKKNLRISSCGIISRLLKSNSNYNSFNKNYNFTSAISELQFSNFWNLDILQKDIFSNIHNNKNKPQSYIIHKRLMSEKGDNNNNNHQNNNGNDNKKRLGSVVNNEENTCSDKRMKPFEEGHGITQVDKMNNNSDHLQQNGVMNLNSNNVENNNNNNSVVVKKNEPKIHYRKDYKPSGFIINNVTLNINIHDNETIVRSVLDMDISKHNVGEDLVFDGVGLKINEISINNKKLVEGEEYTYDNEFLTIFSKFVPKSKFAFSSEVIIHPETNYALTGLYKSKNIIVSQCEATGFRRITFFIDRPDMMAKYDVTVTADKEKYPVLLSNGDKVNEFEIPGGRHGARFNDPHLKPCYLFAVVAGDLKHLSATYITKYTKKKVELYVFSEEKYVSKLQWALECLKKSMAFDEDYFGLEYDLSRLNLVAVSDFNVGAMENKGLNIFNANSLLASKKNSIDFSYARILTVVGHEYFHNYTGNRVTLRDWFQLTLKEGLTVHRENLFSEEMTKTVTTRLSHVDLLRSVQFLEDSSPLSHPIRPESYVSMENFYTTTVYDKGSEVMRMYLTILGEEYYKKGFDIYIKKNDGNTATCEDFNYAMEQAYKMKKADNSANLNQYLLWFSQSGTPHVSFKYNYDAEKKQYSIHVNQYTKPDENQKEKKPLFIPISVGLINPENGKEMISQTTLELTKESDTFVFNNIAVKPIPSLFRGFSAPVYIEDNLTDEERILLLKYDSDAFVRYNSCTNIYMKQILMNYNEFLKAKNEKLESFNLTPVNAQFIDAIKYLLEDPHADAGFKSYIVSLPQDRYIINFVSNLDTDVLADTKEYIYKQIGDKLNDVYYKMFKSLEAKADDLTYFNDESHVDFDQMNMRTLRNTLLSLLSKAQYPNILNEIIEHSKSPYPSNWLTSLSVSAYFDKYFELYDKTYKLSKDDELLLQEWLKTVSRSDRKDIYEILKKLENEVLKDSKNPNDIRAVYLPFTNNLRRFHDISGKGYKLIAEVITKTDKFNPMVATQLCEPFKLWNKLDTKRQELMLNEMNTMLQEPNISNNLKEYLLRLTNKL

[12] = CEM21 lymphoblast cell cytotoxicity, dose response, cytotoxicity control for viral fusion inhibitor project, CellTiter-Glo luminescence, cherry-picked (AID 652042); type: functional, cell-based;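 note: potency for signal decrease meaning cytotoxicity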
[13] = off-target signal loss in HeLa-CEM21 co-culture – HeLa F-luc CTL cells, cherry-picked, counter-screen for HIV-1 Env fusion inhibitor project, dose response (AID 652040); type: functional, cell-based;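 note: potency for signal decrease marking cytotoxic or nonspecific inhibition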
[14] = inhibitors of HIV Env-driven cell fusion, dose response, cherry-pick (AID 652057); type: functional, cell-based
[15] = inhibitors of clade B AD8 Env fusion, dose response, cell-based, cherry-pick (AID 652062); type: functional;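 note: luciferase signal from cell-cell fusion driven by HIV-1 clade B AD8 Env; potency is for inhibitors of fusion seen as a drop in luminescence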
[16] = ZM109 Env clade C HIV-1 fusion inhibitors, dose response, HeLa effector, CEM target cells, luciferase, cherry-pick (AID 652058); type: functional, cell-based

Structure (SMILES): COc1ccc(S(=O)(=O)N(C)C[C@H]2OCCCC[C@H](C)Oc3ccc(NS(=O)(=O)c4ccc(F)cc4)cc3C(=O)N([C@@H](C)CO)C[C@@H]2C)cc1
AC50 [1]: 46.1 µM (active)
AC50 [2]: 56.8 µM (active)
AC50 (Paired box protein Pax-8): 4.67 µM (active)
AC50 [3]: 21.5 µM (active)

EC50 [4]: > 67.6 µM (inactive)
Structure (SMILES): CC(C)Oc1cc(O)c2c(=O)c(-c3ccc(O)cc3)coc2c1

Structure (SMILES): COc1ccc(OC)c(NC(=O)COC(=O)c2c3c(nc4ccccc24)CCCC3)c1
AC50 [5]: 8.67 µM (active)
IC50 [6]: > 69.5 µM (inactive)
AC50 [7]: > 70 µM (inactive)
IC50 (H9c2): > 79 µM (inactive)
IC50 [8]: > 69.5 µM (inactive)

Structure (SMILES): Cc1cc(N=Nc2ccc3ccccc3c2)ccc1O
AC50 [9]: 3.23 µM (active)
EC50 [4]: > 67.6 µM (inactive)
AC50 [10]: 3.92 µM (active)

Structure (SMILES): CCCCn1c(NS(=O)(=O)c2ccccc2)c(C(=O)OCC)c2nc3ccccc3nc21
IC50 [11]: > 128 µM (inactive)
IC50 (Aminopeptidase N): 74.4 µM (active)

Structure (SMILES): Cc1cc(OCC(O)CNC(C)c2ccccc2)ccc1C(C)C (stereo not given)
AC50 [12]: 13.3 µM (active)
AC50 [13]: 3.99 µM (active)
AC50 [14]: 2.75 µM (active)
AC50 [15]: 7.78 µM (active)
AC50 [16]: 1.85 µM (active)
